Experimental data reported in US10660877B2 (BRISTOL-MYERS SQUIBB COMPANY, priority 2016, dated 2020).
Where two headings read alike, the source gives them in different places.

What was measured:
human TLR7 = human TLR7 (Homo sapiens (Human), UniProt Q9NYK1); assay: TLR7 inhibition reporter assay (HEK-Blue cells, SEAP reporter, gardiquimod stimulation); assay type: cell-based
human TLR9 = human TLR9 (Homo sapiens (Human), UniProt Q9NR96); assay: TLR9 inhibition reporter assay (HEK-Blue cells, SEAP reporter, ODN2006 stimulation);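 note: compounds tested over 0.05 nM to 50 µM, 22 h incubation, inhibition taken as SEAP signal drop from agonist plus DMSO wells toward a known inhibitor control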
human TLR8 = human TLR8 (Homo sapiens (Human), UniProt Q9NR97); assay: TLR8 inhibition reporter assay (HEK-Blue cells, SEAP reporter, R848 stimulation);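 note: compounds tested from 0.05 nM to 50 µM, 22 h at 37 °C, SEAP measured with HEK-Blue Detection, inhibition relative to agonist plus DMSO versus a known inhibitor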
[1] = HEK-Blue cells overexpressing human TLR7, gardiquimod 7.5 μM
[2] = read-out: TLR9 IC50, HEK-Blue cells overexpressing human TLR9, ODN2006 5 nM
[3] = read-out: TLR8 IC50, HEK-Blue cells overexpressing human TLR8, R848 15.9 μM

Chain of human TLR7 (Q9NYK1 27-1049): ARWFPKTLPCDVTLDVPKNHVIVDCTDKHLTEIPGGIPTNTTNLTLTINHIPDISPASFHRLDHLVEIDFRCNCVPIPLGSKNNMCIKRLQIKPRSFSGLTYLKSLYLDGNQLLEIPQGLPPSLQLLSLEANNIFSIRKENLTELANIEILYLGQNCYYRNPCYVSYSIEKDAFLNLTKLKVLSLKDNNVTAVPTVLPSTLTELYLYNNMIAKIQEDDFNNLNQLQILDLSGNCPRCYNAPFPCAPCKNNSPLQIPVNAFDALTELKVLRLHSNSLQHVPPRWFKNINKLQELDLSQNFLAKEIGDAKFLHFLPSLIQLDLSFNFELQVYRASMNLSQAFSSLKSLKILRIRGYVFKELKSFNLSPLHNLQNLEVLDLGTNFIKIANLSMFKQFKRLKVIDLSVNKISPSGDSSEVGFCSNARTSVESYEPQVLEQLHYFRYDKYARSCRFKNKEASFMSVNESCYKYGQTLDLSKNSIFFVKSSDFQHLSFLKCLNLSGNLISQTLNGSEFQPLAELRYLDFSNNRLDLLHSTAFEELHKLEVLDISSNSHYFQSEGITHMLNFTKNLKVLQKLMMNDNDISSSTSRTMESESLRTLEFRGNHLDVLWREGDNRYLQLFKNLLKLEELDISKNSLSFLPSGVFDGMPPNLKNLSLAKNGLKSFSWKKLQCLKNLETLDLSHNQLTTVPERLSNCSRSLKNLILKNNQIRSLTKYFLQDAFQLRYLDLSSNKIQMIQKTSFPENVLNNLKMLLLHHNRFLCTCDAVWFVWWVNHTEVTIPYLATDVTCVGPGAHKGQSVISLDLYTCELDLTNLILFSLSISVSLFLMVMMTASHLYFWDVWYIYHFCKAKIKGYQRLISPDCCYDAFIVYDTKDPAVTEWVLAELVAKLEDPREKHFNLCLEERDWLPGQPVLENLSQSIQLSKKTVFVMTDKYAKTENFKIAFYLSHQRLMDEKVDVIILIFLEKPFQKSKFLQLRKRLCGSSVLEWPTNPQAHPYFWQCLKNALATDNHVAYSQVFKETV
Chain of human TLR8 (Q9NR97 27-1041): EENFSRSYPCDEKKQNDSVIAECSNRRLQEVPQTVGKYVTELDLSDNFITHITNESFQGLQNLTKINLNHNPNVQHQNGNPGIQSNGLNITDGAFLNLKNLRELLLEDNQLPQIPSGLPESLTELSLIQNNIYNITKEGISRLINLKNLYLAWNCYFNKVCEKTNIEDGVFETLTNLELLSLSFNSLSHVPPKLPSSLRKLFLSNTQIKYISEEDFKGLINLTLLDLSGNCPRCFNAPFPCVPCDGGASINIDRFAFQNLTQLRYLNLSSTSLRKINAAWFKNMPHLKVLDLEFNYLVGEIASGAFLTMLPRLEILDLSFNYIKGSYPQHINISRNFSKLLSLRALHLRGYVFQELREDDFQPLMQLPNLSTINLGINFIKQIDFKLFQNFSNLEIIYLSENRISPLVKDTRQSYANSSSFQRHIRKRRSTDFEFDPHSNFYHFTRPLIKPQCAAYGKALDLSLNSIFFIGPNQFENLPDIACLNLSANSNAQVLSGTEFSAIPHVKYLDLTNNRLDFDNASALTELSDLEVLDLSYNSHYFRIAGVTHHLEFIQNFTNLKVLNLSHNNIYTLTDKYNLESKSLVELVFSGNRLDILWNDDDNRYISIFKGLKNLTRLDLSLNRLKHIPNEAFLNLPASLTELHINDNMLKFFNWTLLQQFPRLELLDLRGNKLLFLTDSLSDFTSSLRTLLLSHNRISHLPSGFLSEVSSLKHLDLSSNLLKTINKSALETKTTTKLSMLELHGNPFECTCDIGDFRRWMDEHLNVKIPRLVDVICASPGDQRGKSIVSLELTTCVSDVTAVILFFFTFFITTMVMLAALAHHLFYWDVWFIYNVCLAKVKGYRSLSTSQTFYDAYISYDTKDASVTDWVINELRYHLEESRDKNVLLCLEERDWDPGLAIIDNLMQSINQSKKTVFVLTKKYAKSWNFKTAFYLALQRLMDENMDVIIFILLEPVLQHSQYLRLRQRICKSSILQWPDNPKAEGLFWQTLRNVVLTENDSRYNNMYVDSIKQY
Chain of human TLR9 (Q9NR96 26-1032): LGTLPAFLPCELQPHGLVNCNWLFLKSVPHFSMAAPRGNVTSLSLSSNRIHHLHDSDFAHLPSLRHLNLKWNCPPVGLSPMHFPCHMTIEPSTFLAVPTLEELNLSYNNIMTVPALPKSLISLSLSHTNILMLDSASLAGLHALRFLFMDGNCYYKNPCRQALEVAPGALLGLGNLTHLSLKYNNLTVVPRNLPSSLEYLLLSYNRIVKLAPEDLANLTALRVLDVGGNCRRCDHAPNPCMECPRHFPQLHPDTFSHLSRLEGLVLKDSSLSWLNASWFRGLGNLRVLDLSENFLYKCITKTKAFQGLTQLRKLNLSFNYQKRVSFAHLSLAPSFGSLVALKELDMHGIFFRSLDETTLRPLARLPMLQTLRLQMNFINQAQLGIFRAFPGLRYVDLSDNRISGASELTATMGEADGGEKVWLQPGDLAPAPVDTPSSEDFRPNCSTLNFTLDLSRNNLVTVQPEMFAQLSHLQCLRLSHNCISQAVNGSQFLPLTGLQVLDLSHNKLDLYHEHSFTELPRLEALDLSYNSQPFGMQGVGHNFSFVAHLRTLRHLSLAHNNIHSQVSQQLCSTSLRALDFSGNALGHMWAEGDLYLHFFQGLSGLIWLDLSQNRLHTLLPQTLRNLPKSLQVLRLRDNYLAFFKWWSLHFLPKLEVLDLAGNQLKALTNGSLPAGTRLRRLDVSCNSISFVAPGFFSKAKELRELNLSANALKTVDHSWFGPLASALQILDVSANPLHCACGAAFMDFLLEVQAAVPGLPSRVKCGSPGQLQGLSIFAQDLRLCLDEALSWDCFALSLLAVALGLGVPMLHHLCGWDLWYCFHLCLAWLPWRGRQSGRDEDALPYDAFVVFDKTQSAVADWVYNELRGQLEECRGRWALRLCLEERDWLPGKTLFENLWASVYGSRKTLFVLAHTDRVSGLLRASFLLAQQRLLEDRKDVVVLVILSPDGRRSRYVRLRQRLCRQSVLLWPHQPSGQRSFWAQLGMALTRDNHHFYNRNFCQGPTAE

Row | IC50 (human TLR7; [1]) [nM] | IC50 (human TLR9; [2]) [nM] | IC50 (human TLR8; [3]) [nM] | IC50 (human TLR7; HEK-Blue cells, gardiquimod 7.5 μM) [nM] | IC50 (human TLR9; read-out: TLR9 IC50, HEK-Blue cells, ODN2006 5 nM) [nM] | IC50 (human TLR8; read-out: TLR8 IC50, HEK-Blue cells, R848 15.9 μM) [nM] | IC50 (human TLR9; TLR9 IC50, HEK-Blue cells overexpressing human TLR9, ODN2006 5 nM) [nM] | IC50 (human TLR8; TLR8 IC50, HEK-Blue cells overexpressing human TLR8, R848 15.9 μM) [nM] | Structure (SMILES)
1 | 7.2 | 955 | 22.3 | – | – | – | – | – | Cc1cc(-c2[nH]c3ccc(C4CCNCC4)cc3c2C(C)C)c(C)c(C)n1 [Example 39, 3-isopropyl-5-(piperidin-4-yl)-2-(2,3,6-trimethylpyridin-4-yl)-1H-indole]
2 | 1.2 | 129 | 2 | – | – | – | – | – | Cc1cc(-c2[nH]c3ccc(C4CCN(CC(=O)N5CCS(=O)(=O)CC5)CC4)cc3c2C(C)C)cc(C)n1 [Example 281, 2-(4-(2-(2,6-dimethylpyridin-4-yl)-3-isopropyl-1H-indol-5-yl)piperidin-1-yl)-1-(1,1-dioxidothiomorpholino)ethan-1-one]
3 | 42.7 | 437 | 27.1 | – | – | – | – | – | COc1cc(-c2[nH]c3ccc(C4CCN(Cc5c[nH]c(C)n5)CC4)cc3c2C(C)C)ccn1 [Example 520, 3-isopropyl-2-(2-methoxypyridin-4-yl)-5-(1-((2-methyl-1H-imidazol-4-yl)methyl)piperidin-4-yl)-1H-indole]
4 | 51.1 | > 50000 | 67.9 | – | – | – | – | – | Cc1cc(-c2[nH]c3ccc(C4CCN(C(=O)C5CC(=O)N(C)C5)CC4)cc3c2C(C)C)ccn1 (stereo not drawn) [Example 619, 4-(4-(3-isopropyl-2-(2-methylpyridin-4-yl)-1H-indol-5-yl)piperidine-1-carbonyl)-1-methylpyrrolidin-2-one]
5 | 7220 | 1280 | 1190 | – | – | – | – | – | CCOc1cc(-c2[nH]c3ccc(C4CCN(C5CCN(CC(C)C)CC5)CC4)cc3c2CC)ccn1 [Example 768, 2-(2-ethoxypyridin-4-yl)-3-ethyl-5-(1′-isobutyl-[1,4′-bipiperidin]-4-yl)-1H-indole]
6 | 7.6 | 846 | 72.5 | – | – | – | – | – | Cc1cc(-c2[nH]c3ccc(C4CCN(C(=O)CN(C)CCC5(O)CCCC5)CC4)cc3c2C(C)C)cc(C)n1 [Example 408, 1-(4-(2-(2,6-dimethylpyridin-4-yl)-3-isopropyl-1H-indol-5-yl)piperidin-1-yl)-2-((2-(1-hydroxycyclopentyl)ethyl)(methyl)amino)ethan-1-one]
7 | 3.4 | 451 | 16.8 | – | – | – | – | – | Cc1cc(-c2[nH]c3ccc(C4CCN(C(=O)CN5CCOC[C@H]5CO)CC4)cc3c2C(C)C)cc(C)n1 [Example 400, (R)-1-(4-(2-(2,6-dimethylpyridin-4-yl)-3-isopropyl-1H-indol-5-yl)piperidin-1-yl)-2-(3-(hydroxymethyl)morpholino)ethan-1-one]
8 | 6.1 | 946 | 3.9 | – | – | – | – | – | Cc1cc(-c2[nH]c3ccc(C4CCNCC4)cc3c2C(C)C)ccn1 [Example 5, 3-isopropyl-2-(2-methylpyridin-4-yl)-5-(piperidin-4-yl)-1H-indole]
9 | 10.1 | 835 | 21.1 | – | – | – | – | – | Cc1cc(-c2[nH]c3ccc(C4CCN(C(CF)CF)CC4)cc3c2C(C)C)cc(C)n1 [Example 473, 5-(1-(1,3-difluoropropan-2-yl)piperidin-4-yl)-2-(2,6-dimethylpyridin-4-yl)-3-isopropyl-1H-indole]
10 | 7.4 | 33100 | 103 | – | – | – | – | – | Cc1cc(-c2[nH]c3ccc(C4CCN(C(=O)C5CC5(F)F)CC4)cc3c2C(C)C)cc(C)n1 (stereo not drawn) [Example 108, (2,2-difluorocyclopropyl)(4-(2-(2,6-dimethylpyridin-4-yl)-3-isopropyl-1H-indol-5-yl)piperidin-1-yl)methanone]
11 | 1310 | > 50000 | 111 | – | – | – | – | – | Cc1cc(-c2[nH]c3ccc(C4CCN(Cc5nnn[nH]5)CC4)cc3c2C(C)C)c(C)cn1 [Example 695, 5-(1-((1H-tetrazol-5-yl)methyl)piperidin-4-yl)-2-(2,5-dimethylpyridin-4-yl)-3-isopropyl-1H-indole]
12 | 286 | 4130 | 820 | – | – | – | – | – | Cc1cc(-c2[nH]c3ccc(C4CCN(CC(=O)NC56CC7CC(CC(C7)C5)C6)CC4)cc3c2C(C)C)cc(C)n1 [Example 224, N-(adamantan-1-yl)-2-(4-(2-(2,6-dimethylpyridin-4-yl)-3-isopropyl-1H-indol-5-yl)piperidin-1-yl)acetamide]
13 | – | – | – | 38.1 | 1690 | 12.2 | – | – | Cc1cc(-c2[nH]c3ccc(C4CCN(CC5CC5)CC4)cc3c2C(C)C)ccn1 [Example 866, 5-(1-(cyclopropylmethyl)piperidin-4-yl)-3-isopropyl-2-(2-methylpyridin-4-yl)-1H-indole]
14 | 0.8 | 145 | 2.7 | – | – | – | – | – | Cc1cc(-c2[nH]c3cc(F)c(C4CCNCC4)cc3c2C(C)C)cc(C)n1 [Example 78, 2-(2,6-dimethylpyridin-4-yl)-6-fluoro-3-isopropyl-5-(piperidin-4-yl)-1H-indole]
15 | 172 | 213 | 32.7 | – | – | – | – | – | CCc1c(-c2ccnc(C)c2)[nH]c2ccc(C3CCN(C[C@@H]4CCCN4C(C)C)CC3)cc12 [Example 741, (S)-3-ethyl-5-(1-((1-isopropylpyrrolidin-2-yl)methyl)piperidin-4-yl)-2-(2-methylpyridin-4-yl)-1H-indole]
16 | 3.6 | – | – | – | – | – | 627 | 7.7 | Cc1cc(-c2[nH]c3ccc(C4CCN(CC(=O)N5CCOCC5)CC4)cc3c2C(C)C)cc(C)n1 [Example 232, 2-(4-(2-(2,6-dimethylpyridin-4-yl)-3-isopropyl-1H-indol-5-yl)piperidin-1-yl)-1-morpholinoethan-1-one]
17 | 3 | 462 | 4 | – | – | – | – | – | Cc1cc(-c2[nH]c3ccc(C4CCN(CC(=O)N(C)CC#N)CC4)cc3c2C(C)C)cc(C)n1 [Example 247, N-(cyanomethyl)-2-(4-(2-(2,6-dimethylpyridin-4-yl)-3-isopropyl-1H-indol-5-yl)piperidin-1-yl)-N-methylacetamide]
18 | 6.8 | 2010 | 17.2 | – | – | – | – | – | Cc1cc(-c2[nH]c3ccc(C4CCN(CC(=O)NCC(C)C)CC4)cc3c2C(C)C)cc(C)n1 [Example 221, 2-(4-(2-(2,6-dimethylpyridin-4-yl)-3-isopropyl-1H-indol-5-yl)piperidin-1-yl)-N-isobutylacetamide]
19 | 1480 | 1690 | 704 | – | – | – | – | – | CC(C)c1c(-c2ccnc(N(C)C)c2)[nH]c2ccc(C3CCNCC3)cc12 [Example 24, 4-(3-isopropyl-5-(piperidin-4-yl)-1H-indol-2-yl)-N,N-dimethylpyridin-2-amine]
20 | 5.1 | 354 | 6.3 | – | – | – | – | – | Cc1cc(-c2[nH]c3ccc(C4CCNCC4)cc3c2C(C)C)c(N)cn1 [Example 10, 4-(3-isopropyl-5-(piperidin-4-yl)-1H-indol-2-yl)-6-methylpyridin-3-amine]
21 | 120 | 96 | 8.2 | – | – | – | – | – | CCc1c(-c2ccnc(C)c2)[nH]c2ccc(C3CCN(C[C@@H]4CCNC4)CC3)cc12 [Example 739, (R)-3-ethyl-2-(2-methylpyridin-4-yl)-5-(1-(pyrrolidin-3-ylmethyl)piperidin-4-yl)-1H-indole]
22 | 19 | 86 | 32.1 | – | – | – | – | – | Cc1cc(-c2[nH]c3ccc(C4CCN(CC5CC5)CC4)cc3c2C2CC2)cc(C)n1 [Example 667, 3-cyclopropyl-5-(1-(cyclopropylmethyl)piperidin-4-yl)-2-(2,6-dimethylpyridin-4-yl)-1H-indole]
23 | 2.8 | 322 | 23.9 | – | – | – | – | – | Cc1cc(-c2[nH]c3ccc(C4CCN(C(=O)C5(C)CCNCC5)CC4)cc3c2C(C)C)cc(C)n1 [Example 197, (4-(2-(2,6-dimethylpyridin-4-yl)-3-isopropyl-1H-indol-5-yl)piperidin-1-yl)(4-methylpiperidin-4-yl)methanone]
24 | 4 | 795 | 15.8 | – | – | – | – | – | Cc1cc(-c2[nH]c3ccc(C4CCN(C(=O)CNC5(C)CC5)CC4)cc3c2C(C)C)cc(C)n1 [Example 360, 1-(4-(2-(2,6-dimethylpyridin-4-yl)-3-isopropyl-1H-indol-5-yl)piperidin-1-yl)-2-((1-methylcyclopropyl)amino)ethan-1-one]
25 | 201 | 14500 | 226 | – | – | – | – | – | CCc1c(-c2ccnc(C)c2)[nH]c2ccc(C3CCN(C(=O)[C@H]4CC(F)(F)CN4)CC3)cc12 [Example 623, (R)-(4,4-difluoropyrrolidin-2-yl)(4-(3-ethyl-2-(2-methylpyridin-4-yl)-1H-indol-5-yl)piperidin-1-yl)methanone]
26 | 19.7 | 9450 | 108 | – | – | – | – | – | Cc1cc(-c2[nH]c3ccc(C4CCN(C(=O)C5(C#N)CC5)CC4)cc3c2C(C)C)ccn1 [Example 611, 1-(4-(3-isopropyl-2-(2-methylpyridin-4-yl)-1H-indol-5-yl)piperidine-1-carbonyl)cyclopropane-1-carbonitrile]
27 | 7.7 | 202 | 6.3 | – | – | – | – | – | Cc1cc(-c2[nH]c3ccc(C4CCN(Cc5c[nH]nc5C)CC4)cc3c2C(C)C)cc(C)n1 [Example 439, 2-(2,6-dimethylpyridin-4-yl)-3-isopropyl-5-(1-((3-methyl-1H-pyrazol-4-yl)methyl)piperidin-4-yl)-1H-indole]
28 | 6.2 | 43300 | 88.3 | – | – | – | – | – | Cc1cc(-c2[nH]c3ccc(C4CCN(C(=O)C(C)(C)O)CC4)cc3c2C(C)C)cc(C)n1 [Example 173, 1-(4-(2-(2,6-dimethylpyridin-4-yl)-3-isopropyl-1H-indol-5-yl)piperidin-1-yl)-2-hydroxy-2-methylpropan-1-one]
